Where no end group is shown, it is not given here.
Experiments:
[1] = test system: DNA packaged in HSV-1 virion; test: SAXS of HSV-1 virions with added compound; details: HSV-1 virions in TM-buffer, 37°C
Protocol: In the third SAXS screening step, we added the selected compounds to whole virions (enveloped capsids) in TM-buffer to verify that the compounds penetrate the lipid envelope, tegument protein layer, and capsid wall. […] Both C-capsids and virions have a well-resolved X-ray scattering peak corresponding to diffraction from packaged DNA[60] used for ds determination. […] During HSV-1 replication, it takes approximately 1 h for HSV-1 to adsorb to a cell surface and an additional 2–4 h for viral capsids to be transported, once fused with a cell membrane, to a cell nucleus where DNA is ejected from capsids. [HSV-1 replication dynamics in cell culture were verified separately and were also verified elsewhere[41]]. […] Compound concentrations in this SAXS measurements of virions were the same as in the SAXS measurements of C-capsids above, with virion concentration of 10^13 pfu/mL.
Vero cells were infected with an HSV-1 KOS strain overnight (21 h at 37°C) at a MOI of 0.1 PFU per cell. […] The concentrations of the compounds added to induce DNA condensation were calculated as described above.
All SAXS measurements of viral capsids were conducted at a concentration of 10^13 viral particles per mL (the highest technically achievable capsid concentration). […] Samples were measured in the temperature range of 15–37°C, and the sample temperature was controlled with a Peltier device with ± 0.5°C accuracy. […]

free dsDNA = test: SAXS of free (bulk) DNA condensed by added compound; details: free dsDNA in TM-buffer, N/P ratio 1.5, 15, 23 and 37°C
Text: To determine if our DNA condensing compounds target pressurized intracapsid DNA in HSV-1 virions, we developed a three-step SAXS assay. In the first step, we confirmed the ability of compounds DAB-Am-4, bPEI 600, and Arg^5+ to condense the dsDNA in solution. We measured DNA-DNA spacing (ds) in bulk DNA solution in TM-buffer (i.e. free DNA without the capsid), where DNA is condensed by the added compound. This bulk DNA ds-measurement allows for quick prescreening with an in-house SAXS to determine if compounds are capable of binding to dsDNA and reducing DNA-DNA spacing below the physiologic ds-value for DNA packaged in a viral capsid (ds* = 31Å for HSV-1). […] The Bragg spacing, dBr, and the actual distance between helices, ds, are related by ds = 2dBr/sqrt(3) (see details in Materials and Methods). […] Compound concentrations were scaled proportionally with DNA concentration in the sample to correspond to the N/P ratio of 1.5, where N provides the number of positively charged amine groups on the polyamine compound, and P provides the number of negatively charged phosphate groups on the DNA. An N/P ratio of ~1–1.5 was previously shown to be sufficient for DNA condensation with polycationic amines.
For bulk DNA measurements with in-house SAXS, concentrated polycation solutions were added to 1 mg/mL free DNA in small increments of concentration. […]

[2] = Cytotoxicity assay in uninfected HFF-1 cells; details: human
Protocol: In parallel, for each DNA condensing compound, we determined the cytotoxicity concentration (CC50 value) using standard in vitro cellular replication assays in human foreskin fibroblast (HFF) cells (used as a standard for herpesvirus replication in vitro assays for antiviral compound tests)[48]. Cytotoxicity assays were performed on a parallel set of six-well plates containing confluent monolayers of HFF-1 cells at the same cell amount as used for antiviral plaque reduction assays for EC50 value determination, but cells were uninfected[48].
Cytotoxicity assays were performed on a parallel set of six-well plates containing HFF-1 cells that received the same compound concentrations as used for the antiviral assays but remained uninfected. […]
Each compound was evaluated in a standard cytotoxicity assay by standard methods [100]. […] The optical density was then determined at 550 nm and CC50 values were interpolated from the experimental data.
The inhibition of either Vero cell or HFF-1 cell proliferation was used to refine estimates of cytotoxicity for the compounds and was performed according to standard procedures [101]. […] The plates were incubated for 72 h at 37°C; the cells were then dislodged with trypsin and counted on a Beckman Coulter Counter. […]

Text for MEF cell line: We also determined cytotoxicity in the murine MEF cell line, relevant to animal studies.

Molecule | DNA-DNA interaxial spacing ds [1] | DNA-DNA interaxial spacing ds (free dsDNA) | CC50 (MEF cell line) [µM] | CC50 at 7 days [2] [µM]
NCCCN(CCCN)CCCCN(CCCN)CCCN [DAB-Am-4] | below 31 Å | below 31 Å | 22 | –
RRRRR [Arg^5+] | below 31 Å | below 31 Å | – | 83

Reference: article PMC7377361, “Pressurized DNA state inside herpes capsids—A novel antiviral target” (PLoS Pathogens, 2020)
